Source: the supplement of paper PMC10307832

What was measured:
Assay in all cases: relative viability (nuclei count vs DMSO), 5 days (fraction); higher = more cells survive
Sulindac + OSI-027 = compound: CC1=C(CC(=O)O)c2cc(F)ccc2/C1=C\c1ccc([S+](C)[O-])cc1 [Sulindac] + COc1cccc2cc(-c3nc([C@H]4CC[C@H](C(=O)O)CC4)n4ncnc(N)c34)[nH]c12 [OSI-027] (partner 0.5 µM)
Procedure, shortened: (§1)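 Lung cancer cell lines in 1536-well plates were dosed by pin tool the day after seeding, either with one drug alone or with a fixed anchor-drug dose plus five library-drug doses (not always all listed) in √10 steps. After 5 days, cells were fixed and their nuclei stained in one step (final 0.05% Triton X-100, 1% formaldehyde, 1 ug/ml Hoechst), then counted on 4× images. Relative viability is the nuclei count in treated wells divided by that in vehicle wells. Values are medians of duplicate plates.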

Sulindac + Crizotinib = compound: CC1=C(CC(=O)O)c2cc(F)ccc2/C1=C\c1ccc([S+](C)[O-])cc1 [Sulindac] + C[C@@H](Oc1cc(-c2cnn(C3CCNCC3)c2)cnc1N)c1c(Cl)ccc(F)c1Cl [Crizotinib] (partner 1 µM)
Procedure, shortened: as §1

Sulindac + Decitabine = compound: CC1=C(CC(=O)O)c2cc(F)ccc2/C1=C\c1ccc([S+](C)[O-])cc1 [Sulindac] + Nc1ncn([C@H]2C[C@H](O)[C@@H](CO)O2)c(=O)n1 [Decitabine] (partner 2 µM)
Procedure, shortened: as §1

[1] = compound: O=c1[nH]cc(F)c(=O)[nH]1 [5-Fluorouracil] + CC(=O)c1c(C)c2cnc(Nc3ccc(N4CCNCC4)cn3)nc2n(C2CCCC2)c1=O [Palbociclib] (partner 0.5 µM)
Procedure, shortened: as §1

UMC-11
relative viability (Sulindac + OSI-027; first compound 0.08 µM): 0.624
relative viability (Sulindac + OSI-027; first compound 0.253 µM): 0.502
relative viability (Sulindac + OSI-027; first compound 0.8 µM): 0.371
relative viability (Sulindac + OSI-027; first compound 2.53 µM): 0.543
relative viability (Sulindac + OSI-027; first compound 8 µM): 0.487
relative viability (Sulindac + Crizotinib; first compound 0.08 µM): 0.862
relative viability (Sulindac + Crizotinib; first compound 0.253 µM): 0.525
relative viability (Sulindac + Crizotinib; first compound 0.8 µM): 0.66
relative viability (Sulindac + Crizotinib; first compound 2.53 µM): 0.578
relative viability (Sulindac + Crizotinib; first compound 8 µM): 0.901
relative viability (Sulindac + Decitabine; first compound 0.08 µM): 0.595
relative viability (Sulindac + Decitabine; first compound 0.253 µM): 0.627
relative viability (Sulindac + Decitabine; first compound 0.8 µM): 0.535
relative viability (Sulindac + Decitabine; first compound 2.53 µM): 0.584
relative viability (Sulindac + Decitabine; first compound 8 µM): 0.65
relative viability ([1]; first compound 0.02 µM): 0.344
relative viability ([1]; first compound 0.2 µM): 0.364
relative viability ([1]; first compound 0.6325 µM): 0.309
